In general, chromatographic logP refers to a lipophilicity value derived from retention on a column.

In patent publication US10231453B2, “5-substituted imidazole derivatives” (BAYER CROPSCIENCE AKTIENGESELLSCHAFT, priority 2015, dated 2019) one finds pest or weed control and chromatographic logP data, which are given here for six compounds.

Structures are written as SMILES. Read-outs that look alike come from different tables or passages of the source.

For one data set, the system named is Venturia inaequalis. The data set is described as follows: In vivo preventive Venturia test (apples), Example J. Particulars: 240 h, read-out: efficacy.
The next data set concerns Fusarium graminearum. Kind of data set: whole plant or invertebrate. It is filed as in vivo. To be noted: in Hordeum vulgare, 120 h, read-out: efficacy.
The test system of a further data set is Phakopsora pachyrhizi. Kind of data set: In vivo preventive Phakopsora test (soybeans), Example I. Particulars: 168 h, 100 ppm of active ingredient, preventive spray, evaluated 7 days after inoculation, read-out: efficacy.
Data set [1] can be described thus: Measurement of LogP values by HPLC on reversed phase columns (EEC directive 79/831 Annex V.A8). It is filed as physicochemical. To be noted: method [a]: LC-UV, acidic range, 0.1% formic acid in water and acetonitrile as eluent; Table 1. As for the experimental part: Measurement of Log P values was performed as outlined above.
Another data set has as its system Botrytis cinerea. The data set is described as follows: In vivo preventive test on Botrytis cinerea (grey mould) on gherkin, Examples B, Q1 and R2. Particulars: Botrytis cinerea.
The test system of a further data set is Pyricularia oryzae. The data set is described as follows: whole plant or invertebrate. It is filed as in vivo. Particulars: 192 h, read-out: efficacy.
The next data set concerns Alternaria solani. Kind of data set: In vivo preventive Alternaria test (tomatoes), Example H. Particulars: 72 h, 100 ppm of active ingredient, preventive spray, evaluated 3 days after inoculation, read-out: efficacy.
In data set [2] the test system is Fusarium nivale (var. majus). Kind of data set: In vivo preventive Fusarium nivale (var. majus) test (wheat), Example O. Particulars: Microdochium nivale, 120 h, 500 ppm of active ingredient, preventive spray, evaluated 5 days after inoculation, read-out: efficacy. An excerpt:
After the spray coating has been dried, the plants are slightly injured by using a sandblast and afterwards they are sprayed with a conidia suspension of Fusarium nivale (var. majus).

The test system of the next data set is Sphaerotheca fuliginea. The data set is described as follows: In vivo preventive test on Sphaerotheca fuliginea (powdery mildew on cucurbits), Examples F and R6. To be noted: Podosphaera fuliginea, 360 h, preventive spray, evaluated 15 days after inoculation.
The test system of a further data set is Pyrenophora teres. The data set is described as follows: In vivo preventive test on Pyrenophora teres (net blotch on barley), Examples D, Q2 and R4. To be noted: Pyrenophora teres, 336 h.
The subject of data set [3] is Blumeria graminis fsp. hordei. Kind of data set: In vivo preventive Blumeria test (barley), Example K. Particulars: 168 h, 500 ppm of active ingredient, preventive spray, evaluated 7 days after inoculation, read-out: efficacy. An excerpt: After the spray coating has been dried, the plants are dusted with spores of Blumeria graminis fsp. hordei.
A further data set relates to Alternaria brassicae. Kind of data set: In vivo preventive test on Alternaria brassicae (leaf spot on radish), Examples A and R1. To be noted: Alternaria brassicae, 144 h.
The test system of the next data set is Uromyces appendiculatus. Kind of data set: In vivo preventive test on Uromyces appendiculatus (bean rust), Examples G and R7. Particulars: 264 h, preventive spray, evaluated 11 days after inoculation.
The next data set concerns Septoria tritici. The data set is described as follows: In vivo preventive test on Septoria tritici (leaf spot on wheat), Examples E, Q3 and R5. To be noted: Zymoseptoria tritici, 576 h, preventive spray, evaluated 24 days after inoculation.
The test system of a further data set is Leptosphaeria nodorum. Kind of data set: In vivo preventive Leptosphaeria nodorum test (wheat), Example N. To be noted: Parastagonospora nodorum, 192 h, 500 ppm of active ingredient, preventive spray, evaluated 8 days after inoculation, read-out: efficacy. An excerpt: After the spray coating has been dried, the plants are sprayed with a spore suspension of Leptosphaeria nodorum.

The next data set relates to Puccinia recondita. Kind of data set: In vivo preventive test on Puccinia recondita (brown rust on wheat), Examples C and R3. Particulars: Puccinia recondita, 264 h, preventive spray, evaluated 11 days after inoculation.
The subject of another data set is Fusarium culmorum. Kind of data set: In vivo preventive Fusarium culmorum test (wheat), Example L. To be noted: 120 h, 500 ppm of active ingredient, preventive spray, evaluated 5 days after inoculation, read-out: efficacy. As for the experimental part:
After the spray coating has been dried, the plants are slightly injured by using a sandblast and afterwards they are sprayed with a conidia suspension of Fusarium culmorum.
The test is evaluated 5 days after the inoculation.

Where [4] appears, read: 500 ppm of active ingredient, preventive spray, evaluated 4 to 5 days after inoculation, read-out: efficacy.
Where [5] appears, read: 500 ppm of active ingredient, gherkin, read-out: efficacy.
[6] abbreviates: 500 ppm of active ingredient, preventive spray, evaluated 14 days after inoculation, read-out: efficacy.
Setting [7] is: 500 ppm of active ingredient, preventive spray, evaluated 6 days after inoculation, read-out: efficacy.
The mark [8] stands for this setting: 500 ppm of active ingredient, bean, read-out: efficacy.
Where [9] appears, read: 500 ppm of active ingredient, wheat, read-out: efficacy.

Experimental for Venturia inaequalis: After the spray coating has dried on, the plants are inoculated with an aqueous conidia suspension of the causal agent of apple scab (Venturia inaequalis) and then remain for 1 day in an incubation cabinet at approximately 20° C. and a relative atmospheric humidity of 100%.
The plants are then placed in a greenhouse at approximately 21° C. and a relative atmospheric humidity of approximately 90%.
The test is evaluated 10 days after the inoculation.

As to `OC(Cc1ccccc1Cl)(Cn1cncc1Br)C1(Cl)CC1` (stereo not shown) [Example I-04], the pest or weed control at 100 ppm in the data set on Venturia inaequalis is 90 to 100%; with Phakopsora pachyrhizi it was 90 to 100%; in the data set with Botrytis cinerea (Example R2, rate of application 100 ppm, read-out: Efficacy in %) it was 90%; with Alternaria solani, 90 to 100%; with Sphaerotheca fuliginea (Example R6, gherkin, 100 ppm, read-out: Efficacy in %), 100%; in the data set with Pyrenophora teres (Example R4, rate of application 100 ppm, read-out: Efficacy in %), 71%. The pest or weed control at 100 ppm with Alternaria brassicae (Example R1, rate of application 100 ppm, read-out: Efficacy in %) came to 20%; with Uromyces appendiculatus (Example R7, bean, 100 ppm, read-out: Efficacy in %) it was 100%; in the data set on Septoria tritici (Example R5, wheat, 100 ppm, read-out: Efficacy in %), 97%; in the data set with Puccinia recondita (Example R3, wheat, 100 ppm, read-out: Efficacy in %) it was 88%. Further, the pest or weed control at 500 ppm in the data set with Fusarium graminearum is 70 to 79%; in the data set on Botrytis cinerea (setting [4]), 90 to 100%; in the data set on Botrytis cinerea (Example R2, rate of application 500 ppm, read-out: Efficacy in %) it was 100%; in the data set with Pyricularia oryzae, 90 to 100%; in data set [2], 90 to 100%; in the data set with Sphaerotheca fuliginea (setting [5]) it was 90 to 100%. In addition, the pest or weed control at 500 ppm in the data set with Sphaerotheca fuliginea (Example R6, gherkin, 500 ppm, read-out: Efficacy in %) was 100%; in the data set with Pyrenophora teres (setting [6]) it was 90 to 100%; in the data set with Pyrenophora teres (Example R4, rate of application 500 ppm, read-out: Efficacy in %) it was 93%; in data set [3], 90 to 100%; in the data set on Alternaria brassicae (setting [7]) it was 70 to 79%; with Alternaria brassicae (Example R1, rate of application 500 ppm, read-out: Efficacy in %), 70%. Besides, the pest or weed control at 500 ppm was 90 to 100% in the data set on Uromyces appendiculatus (setting [8]); 100% in the data set with Uromyces appendiculatus (Example R7, bean, 500 ppm, read-out: Efficacy in %); 90 to 100% with Septoria tritici (setting [9]); 100% in the data set with Septoria tritici (Example R5, wheat, 500 ppm, read-out: Efficacy in %); 90 to 100% in the data set with Leptosphaeria nodorum; 90 to 100% with Puccinia recondita (setting [9]). The pest or weed control at 500 ppm in the data set with Puccinia recondita (Example R3, wheat, 500 ppm, read-out: Efficacy in %) was determined as 94%. In addition, the chromatographic logP in data set [1] is 2.27.

With `N#Cc1cncn1CC(O)(Cc1cccnc1Cl)C1(Cl)CC1` (stereo not shown) [Example I-26], the values for the pest or weed control at 100 ppm in the data set on Venturia inaequalis, with Phakopsora pachyrhizi and in the data set on Alternaria solani were 90 to 100%, 70 to 79% and 80 to 89%, respectively. In addition, the chromatographic logP in [1] is 2.01. Also, the pest or weed control at 500 ppm was in the range of 80 to 89% in the data set with Pyricularia oryzae; 90 to 100% in data set [2]; 90 to 100% in the data set with Sphaerotheca fuliginea (setting [5]); 90 to 100% in the data set with Fusarium culmorum; 90 to 100% in [3]; 90 to 100% in the data set on Uromyces appendiculatus (setting [8]). Besides, the values for the pest or weed control at 500 ppm in the data set on Septoria tritici (setting [9]), with Leptosphaeria nodorum and with Puccinia recondita (setting [9]) were 90 to 100%, 70 to 79% and 90 to 100%, respectively.

Take `N#Cc1cncn1CC(O)(Cc1ccc(F)cc1F)C1(F)CC1` (stereo not shown) [Example I-97]: the pest or weed control at 100 ppm in the data set with Venturia inaequalis lay within 80 to 89%; with Phakopsora pachyrhizi, 90 to 100%; in the data set on Alternaria solani, 80 to 89%. Also, the pest or weed control at 500 ppm was 90 to 100% with Fusarium graminearum; 70 to 79% in the data set on Pyricularia oryzae; 90 to 100% in data set [2]; 90 to 100% with Sphaerotheca fuliginea (setting [5]); 90 to 100% in the data set on Fusarium culmorum; 80 to 89% with Pyrenophora teres (setting [6]). Also, the pest or weed control at 500 ppm (in data set [3]; in the data set on Uromyces appendiculatus (setting [8]); in the data set with Septoria tritici (setting [9]); in the data set on Puccinia recondita (setting [9])) was 90 to 100% in each case. The compound further yielded a chromatographic logP in [1] of 2.39.

In the case of `N#Cc1cncn1CC(O)(Cc1ccccc1F)C1(F)CC1` (stereo not shown) [Example I-99], the pest or weed control at 100 ppm in the data set on Venturia inaequalis lay in the range of 80 to 89%; in the data set with Phakopsora pachyrhizi, 90 to 100%; in the data set on Alternaria solani it was 90 to 100%. Besides, the pest or weed control at 500 ppm was 90 to 100% in the data set with Fusarium graminearum; 90 to 100% in the data set on Botrytis cinerea (setting [4]); 80 to 89% in the data set with Pyricularia oryzae; 90 to 100% in data set [2]; 90 to 100% in the data set on Sphaerotheca fuliginea (setting [5]); 90 to 100% in the data set on Pyrenophora teres (setting [6]). Further, the pest or weed control at 500 ppm fell in the range of 90 to 100% in data set [3]; 80 to 89% with Alternaria brassicae (setting [7]); 90 to 100% in the data set on Uromyces appendiculatus (setting [8]); 90 to 100% with Septoria tritici (setting [9]); 90 to 100% with Leptosphaeria nodorum; 90 to 100% in the data set with Puccinia recondita (setting [9]). In addition, the chromatographic logP in data set [1] was found to be 2.01.

In the case of `N#Cc1cncn1CC(O)(Cc1cccc(F)c1F)C1(Cl)CC1` (stereo not shown) [Example I-146], the pest or weed control at 100 ppm in the data set on Venturia inaequalis, in the data set on Phakopsora pachyrhizi and in the data set on Alternaria solani was 90 to 100% throughout. In addition, the pest or weed control at 500 ppm lay within 90 to 100% with Fusarium graminearum; 90 to 100% in the data set on Botrytis cinerea (setting [4]); 70 to 79% in the data set on Pyricularia oryzae; 90 to 100% in [2]; 90 to 100% in the data set with Sphaerotheca fuliginea (setting [5]); 90 to 100% in the data set with Pyrenophora teres (setting [6]). The pest or weed control at 500 ppm (in data set [3]; in the data set with Uromyces appendiculatus (setting [8]); in the data set on Septoria tritici (setting [9]); with Leptosphaeria nodorum; with Puccinia recondita (setting [9])) was 90 to 100% in each case. The chromatographic logP in [1] is 2.75.

For the compound `OC(Cc1cccc(F)c1F)(Cn1cncc1Cl)C1(Cl)CC1` (stereo not shown) [Example I-147], the pest or weed control at 100 ppm in the data set on Venturia inaequalis, in the data set on Phakopsora pachyrhizi and in the data set on Alternaria solani was 90 to 100% in each case. For the same compound, the pest or weed control at 500 ppm in the data set on Fusarium graminearum lay within 90 to 100%; with Botrytis cinerea (setting [4]), 90 to 100%; with Pyricularia oryzae, 80 to 89%; in [2], 90 to 100%; with Sphaerotheca fuliginea (setting [5]) it was 90 to 100%; with Pyrenophora teres (setting [6]), 90 to 100%. In addition, the pest or weed control at 500 ppm (in [3]; with Uromyces appendiculatus (setting [8]); in the data set on Septoria tritici (setting [9]); with Leptosphaeria nodorum; with Puccinia recondita (setting [9])) was 90 to 100% throughout. Moreover, the chromatographic logP in data set [1] stood at 2.17.
